Assay results published in patent publication US20240254129A1, “HETEROCYCLIC COMPOUNDS AND USES THEREOF” (Kumquat Biosciences Inc., priority 2021, published 2024).
Read-outs that look alike come from different tables or passages of the source.

Key:
[1] = molecular target: GST-tagged K-Ras mutant / His-tagged hSOS1 (Homo sapiens, UniProt P01116); assay: HTRF assay, K-Ras mutant / SOS1 interaction; type: binding; conditions: read-out: IC50 against mutant Kras
How it was run: (§1)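 Tagged proteins: GST-K-Ras (wt or mutant), His-hSOS1; labels anti-GST-Eu/anti-6His-XL665; HEPES pH 7.4 buffer with DTT, BSA, Igepal. Read ≥10 min post-mix at ex 337 nm; IC50 from ratiometric data, duplicates.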

wildtype Kras / hSOS1 = molecular target: T1, wildtype Kras / hSOS1 (Homo sapiens, UniProt P01116); assay: HTRF assay, wildtype Kras / SOS1 interaction; type: binding; conditions: read-out: IC50 against wildtype Kras
T1 construct: made in house; host or cells: E. coli BL21 (DE3)
How it was run: as §1

[2] = compound nos. 102-196, general methodology of example 5

Sequence of GST-tagged K-Ras mutant / His-tagged hSOS1 (P01116 whole entry G12D, form open): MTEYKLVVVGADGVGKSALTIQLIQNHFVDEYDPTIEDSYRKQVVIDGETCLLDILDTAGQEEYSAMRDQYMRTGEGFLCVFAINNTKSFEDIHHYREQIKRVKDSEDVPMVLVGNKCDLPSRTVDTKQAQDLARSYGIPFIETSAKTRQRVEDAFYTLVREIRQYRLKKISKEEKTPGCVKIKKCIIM
T1 sequence (P01116 1-188 isoform P01116-2): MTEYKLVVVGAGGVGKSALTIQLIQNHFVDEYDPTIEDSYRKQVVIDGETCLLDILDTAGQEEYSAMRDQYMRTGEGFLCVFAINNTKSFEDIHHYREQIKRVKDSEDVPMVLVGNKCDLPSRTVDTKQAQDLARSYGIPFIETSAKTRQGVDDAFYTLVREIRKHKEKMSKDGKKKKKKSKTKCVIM

CN(C)CC1(COc2nc(N3CC4CCC(C3)N4)c3ccc(-c4cccc5cccc(Cl)c45)c(F)c3n2)CC1 [Compound 447, 1-(1-(((4-(3,8-diazabicyclo-[3.2.1]octan-3-yl)-7-(8-chloronaphthalen-1-yl)-8-fluoroquinazolin-2-yl)oxy)-methyl)cyclopropyl)-N,N-dimethylmethanamine]
IC50 ([1]; compound nos. 401-703): > 500 nM
IC50 (wildtype Kras / hSOS1; compound nos. 401-703): < 500 nM

CN1CCC[C@H]1COc1nc(N2CCCCC(C(N)=O)C2)c2cc(Cl)c(-c3cccc4sc(N)nc34)c(F)c2n1 (stereo partly drawn) [Compound 700, 1-(7-(2-aminobenzo[d]-thiazol-4-yl)-6-chloro-8-fluoro-2-(((S)-1-methyl-pyrrolidin-2-yl)methoxy)-quinazolin-4-yl)azepane-3-carboxamide]
IC50 ([1]; compound nos. 401-703): < 500 nM
IC50 (wildtype Kras / hSOS1; compound nos. 401-703): > 500 nM

Nc1nc2c(-c3c(Cl)cc4c(N5CCCCC(N)C5)nc(OC[C@@]56CCCN5C[C@H](F)C6)nc4c3F)ccc(F)c2s1 (stereo partly drawn) [Compound 543, 4-(4-(3-aminoazepan-1-yl)-6-chloro-8-fluoro-2-(((2R,7aS)-2-fluorotetra-hydro-1H-pyrrolizin-7a(5H)-yl)methoxy)quinazolin-7-yl)-7-fluorobenzo[d]thiazol-2-amine]
IC50 ([1]; compound nos. 401-703): < 500 nM
IC50 (wildtype Kras / hSOS1; compound nos. 401-703): > 500 nM

Cc1ccnc(C(C)C)c1-n1c(=O)nc(N2CCNCC(F)(F)C2)c2cc(F)c(-c3cc(O)cc4ccccc34)nc21 [Compound 196, 4-(6,6-difluoro-1,4-diazepan-1-yl)-6-fluoro-7-(3-hydroxynaphthalen-1-yl)-1-(2-isopropyl-4-methyl-pyridin-3-yl)pyrido[2,3-d]-pyrimidin-2(1H)-one]
IC50 [1, 2]: > 500 nM
IC50 (wildtype Kras / hSOS1; [2]): > 500 nM

CN1CCC[C@H]1COc1nc(N2CC3CNC(C3)C2)c2cc(Cl)c(-c3cccc4sc(N)nc34)c(F)c2n1 (stereo partly drawn) [Compound 137, 4-(4-(3,6-diazabicyclo-[3.2.1]octan-3-yl)-6-chloro-8-fluoro-2-(((S)-1-methyl-pyrrolidin-2-yl)methoxy)-quinazolin-7-yl)benzo[d]-thiazol-2-amine]
IC50 [1, 2]: > 500 nM
IC50 (wildtype Kras / hSOS1; [2]): > 500 nM

CN1CCC[C@H]1COc1nc(N2CCCC(NC3CC3)CC2)c2cc(Cl)c(-c3cccc4sc(N)nc34)c(F)c2n1 (stereo partly drawn) [Compound 559, 4-(6-chloro-4-(4-(cyclo-propylamino)azepan-1-yl)-8-fluoro-2-(((S)-1-methyl-pyrrolidin-2-yl)methoxy)-quinazolin-7-yl)benzo[d]-thiazol-2-amine]
IC50 ([1]; compound nos. 401-703): > 500 nM
IC50 (wildtype Kras / hSOS1; compound nos. 401-703): > 500 nM

Nc1cccc(-c2c(Cl)cc3c(N4CCCCCC4)nc(OCC45CCCN4CCC5)nc3c2F)c1F [Compound 430, 3-(4-(azepan-1-yl)-6-chloro-8-fluoro-2-((tetrahydro-1H-pyrrolizin-7a(5H)-yl)meth-oxy)quinazolin-7-yl)-2-fluoroaniline]
IC50 ([1]; compound nos. 401-703): > 500 nM
IC50 (wildtype Kras / hSOS1; compound nos. 401-703): < 500 nM

N#Cc1c(N)sc2c(F)ccc(-c3c(Cl)cc4c(N5CC6CCC(C5)N6CC5CC5)nc(OC[C@@]56CCCN5C[C@H](F)C6)nc4c3F)c12 [Compound 500, 2-amino-4-(6-chloro-4-((1R,5S)-8-(cyclopropyl-methyl)-3,8-diazabicyclo-[3.2.1]octan-3-yl)-8-fluoro-2-(((2R,7aS)-2-fluorotetra-hydro-1H-pyrrolizin-7a(5H)-yl)methoxy)quin-azolin-7-yl)-7-fluorobenzo-[b]thiophene-3-carbonitrile]
IC50 ([1]; compound nos. 401-703): < 500 nM
IC50 (wildtype Kras / hSOS1; compound nos. 401-703): < 500 nM

CN1CCC[C@H]1COc1nc(N2CC3CCC(C2)N3)c2cc(Cl)c(-c3cccc4sc(N)nc34)c(F)c2n1 [Compound 565, 4-(4-(3,8-diazabicyclo-[3.2.1]octan-3-yl)-6-chloro-8-fluoro-2-(((S)-1-methyl-pyrrolidin-2-yl)methoxy)-quinazolin-7-yl)benzo[d]-thiazol-2-amine]
IC50 ([1]; compound nos. 401-703): < 500 nM
IC50 (wildtype Kras / hSOS1; compound nos. 401-703): > 500 nM

Nc1nccc2c(-c3c(Cl)cc4c(N5CC6CCC(C5)N6)nc(OCC56CCCN5CCC6)nc4c3F)cccc12 [Compound 541, 5-(4-(3,8-diazabicyclo-[3.2.1]octan-3-yl)-6-chloro-8-fluoro-2-((tetrahydro-1H-pyrrolizin-7a(5H)-yl)meth-oxy)quinazolin-7-yl)iso-quinolin-1-amine]
IC50 ([1]; compound nos. 401-703): > 500 nM
IC50 (wildtype Kras / hSOS1; compound nos. 401-703): > 500 nM
